# Results reported in patent publication US20060251714A1, “Pharmaceutical formulations of amyloid inhibiting compounds” (priority 2005, published 2006).
# Assay: Gastrointestinal tolerability of capsules (solid dosage form)
# Format: in vivo
# Details: solid dosage form (capsules, Table 2)
# Description: Furthermore, the non-hygroscopic nature of the acid form makes it desirable as active pharmaceutical ingredient. To further protect against any possible gastrointestinal intolerance that could result from the acid form, the tablets are enteric-coated and a modified-release agent is added to control any rapid release of the drug in the stomach and the intestine, respectively.
smiles,measurement,value
NCCCS(=O)(=O)[O-].[Na+] [3-amino-1-propanesulfonic acid sodium salt],gastrointestinal symptoms (i.e. nausea and vomiting),associated with gastrointestinal symptoms
